Reference: patent publication US12509451B2, “Heteroaryl amide inhibitors of CD38” (NAPA THERAPEUTICS LTD., priority 2020, dated 2025)

Columns and labels:
[1] = molecular target: T1, CD38 NAD+ hydrolase activity in NH7-dCas9 cells (Jurkat clone) (Homo sapiens, UniProt P28907); experiment: Fluorescence-based NAD+ hydrolase activity assay with human T cell line NH7-dCas9 cells-Jurkat clone (Assay 1); details: read-out: Assay 1 Arithmetic mean IC50
T1 construct: The assay utilized CD38 expressing NH7-dCas9 cells (Jurkat clone); host or cells: NH7-dCas9 cells (Jurkat clone)
T1 sequence (P28907 1-300): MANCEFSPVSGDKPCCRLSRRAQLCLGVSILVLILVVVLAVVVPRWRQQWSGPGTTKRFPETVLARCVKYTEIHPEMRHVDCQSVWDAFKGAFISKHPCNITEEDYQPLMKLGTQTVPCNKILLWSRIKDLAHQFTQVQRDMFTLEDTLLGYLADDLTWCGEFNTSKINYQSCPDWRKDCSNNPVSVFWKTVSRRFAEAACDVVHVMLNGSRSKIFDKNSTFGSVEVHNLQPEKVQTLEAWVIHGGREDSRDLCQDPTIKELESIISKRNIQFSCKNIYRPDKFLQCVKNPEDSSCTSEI
Protocol: For the modified assay, the performance validation criteria of the assay as a High Throughput Screening (HTS): Z-factor within the plate was greater than 0.89 (optimal HTS z-factor >0.5) and the Intra-plate, inter-plate and day to day variability (CV) was less than 20%.
NAD+ hydrolase activity of a human T cell line treated with test compounds was measured using a fluorescence-based assay. NH7-dCas9 cells (Jurkat clone) were provided by the Weissman Lab (UCSF 1700 4th St., Byers Hall, Room 403B, San Francisco, CA 94158-2330). Briefly, cells were centrifuged, resuspended in 44 μl PBS/10^6 cells and plated in a 96 well black plate (CORNING) at a density of 1×10^6 per well.
Each test compound was received in a powder state and dissolved in DMSO as a 25 mM stock solution. Each test compound was serially diluted in order to generate a dose-response curve. The dilution series of each test compound in DMSO was prepared at 50 times the concentrations to be assayed. Each test compound was diluted to generate a 5-fold dilution series of 8 concentrations from 20 μM to 0.256 nM in order to assay 8 final concentrations ranging from 400 nM to 25.6 pM. One μl of the 50× concentration compound series was added to each well of the plate containing 1×10^6 cells in PBS.
Each plate had the following intra plate controls: 3 wells containing cells treated with vehicle only (DMSO), 3 wells of cells treated with the reference compound 78c at a final concentration of 50 nM and 2 wells containing only PBS (used as a background value).
(§1) The reaction was started by adding nicotinamide 1,N^6-etheno-adenine dinucleotide (Sigma Aldrich) to reach a final concentration of 80 µM. The samples were excited at 321-15 nm, and the emission of fluorescence was measured at 410-20 nm at 37° C. every minute for 1 hr in a Clariostar® microplate reader (BMG LABTECH). NAD+ hydrolase activity was calculated as the slope of the linear portion of the fluorescence-time curve using the MARS data analysis software (BMG LABTECH). The data were uploaded in the Collaborative Drug Design (CDD) Software and for each compound the IC50 was calculated by the software. Each compound was tested in 3 independent experiments on 3 separate days to establish the reproducibility of the results. For each plate, the z-factor was also calculated as a plate quality using the CDD software.

[2] = molecular target: T2, recombinant human CD38 Protein (Homo sapiens, UniProt P28907); experiment: Fluorescence-based NAD+ hydrolase activity assay with human recombinant CD38 protein (Assay 3); format: biochemical; details: read-out: Assay 3 Arithmetic mean IC50
T2 construct: purchased R&D System
T2 sequence (P28907 1-300): T1 sequence (P28907 1-300)
Protocol: This protocol was modified from the following references (Muller et al. (1983); (Schultz et al. (2018); (Matalonga et al. (2017); and de Oliveira et al. (2018), supra.
(§2) NAD+ hydrolase activity of the human recombinant CD38 protein treated with test compounds was measured using a fluorescence-based assay. Briefly, recombinant human CD38 Protein (R&D System) was resuspended in 44 μl/well of Sucrose-Tris Buffer (Sucrose 0.25 M, Tris pH 7.4 40 mM) and plated in a 96-well black plate (CORNING) at a density of 10 ng/well.
Each test compound was received in a powder state and dissolved in DMSO as a 25 mM stock solution. Each test compound was serially diluted in order to generate a dose-response curve. The dilution series of each test compound in DMSO was prepared at 50× the concentrations to be assayed. Each test compound was diluted to generate a 5-fold dilution series of 8 concentrations from 20 μM to 0.256 nM in order to assay 8 final concentrations ranging from ranging from 400 nM to 25.6 pM. One μl of the 50× concentration compound series was added to each well of the plate containing 10 ng protein in Sucrose-Tris buffer.
as §1, with “started” for “started by”, “nm” for “nm,”, “Each compound was tested in 3 independent experiments on 3 separate days to establish the reproducibility of the results.” left out

[3] = molecular target: T3, recombinant mouse CD38 Protein (Mus musculus, UniProt P56528); experiment: Fluorescence-based NAD+ hydrolase activity assay with mouse recombinant CD38 protein (Assay 5); format: biochemical; details: read-out: Assay 5 Arithmetic mean IC50
T3 construct: purchased R&D System
T3 sequence (P56528 1-304): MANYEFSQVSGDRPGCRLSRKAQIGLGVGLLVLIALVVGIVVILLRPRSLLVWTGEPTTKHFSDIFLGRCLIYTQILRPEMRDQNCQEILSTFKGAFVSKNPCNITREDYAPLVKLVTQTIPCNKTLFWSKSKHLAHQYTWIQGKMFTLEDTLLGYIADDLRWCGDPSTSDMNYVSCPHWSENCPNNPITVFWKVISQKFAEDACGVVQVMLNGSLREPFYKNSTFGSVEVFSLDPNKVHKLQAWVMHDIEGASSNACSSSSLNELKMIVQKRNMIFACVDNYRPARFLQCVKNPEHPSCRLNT
Protocol: This protocol was modified from the following references: Muller et al. (1983); Schultz et al. (2018); Matalonga et al. (2017); and de Oliveira et al. (2018), supra.
as §2, with “mouse” for “human”, “96 well” for “96-well”, “2.5” for “10”
(§3) Each test compound was received in a powder state and dissolved in DMSO as a 25 mM stock solution. Each test compound was serially diluted in order to generate a dose-response curve. The dilution series of each test compound in DMSO was prepared at 50 times the concentrations to be assayed. Each test compound was diluted to generate a 5-fold dilution series of 8 concentrations from 20 μM to 0.256 nM in order to assay 8 final concentrations ranging from 400 nM to 25.6 pM. One μl of the 50× concentration compound series was added to each well of the plate containing 2.5 ng of protein in Sucrose-Tris buffer.
Each plate had the following intra plate controls: 3 wells containing cells treated with vehicle only (DMSO), 3 wells of cells treated with the reference compounds 78c at a final concentration of 50 nM and 2 wells containing only Sucrose-Tris buffer (used as a background value).
as §1, with “started” for “started by”, “nm” for “nm,”, “Clariostar Microplate®” for “Clariostar® microplate”

[4] = molecular target: T2, recombinant human CD38 Protein; experiment: Fluorescence-based NAD+ cyclase activity assay with human recombinant CD38 protein (Assay 2); format: biochemical; details: read-out: Assay 2 Arithmetic mean IC50
Protocol: This protocol was modified from the de Oliveira et al., 2018 reference, supra.
as §2, with “cyclase” for “hydrolase”, “125” for “10”
as §3, with “100” for “20”, “32” for “0.256”, “2 μM” for “400 nM”, “0.64 nM.” for “25.6 pM.”, “125” for “2.5”
The reaction was started adding nicotinamide guanine dinucleotide (NGD+) (Sigma Aldrich) to reach a final concentration of 150 µM. The samples were excited at 337-15 nm, and the emission of fluorescence was measured at 442-20 nm at 37° C. every minute for 1 hr in a Clariostar microplate reader (BMG LABTECH). NAD+ cyclase activity was calculated as the slope of the linear portion of the fluorescence-time curve using the MARS data analysis software (BMG LABTECH). The data were uploaded in the Collaborative Drug Design (CDD) Software, and for each compound the IC50 was calculated by the software. For each plate, the z-factor was also calculated as a plate quality using the CDD software.

Structure (SMILES) | IC50 [1] | IC50 [2] | IC50 [3] | IC50 [4]
CNC(=O)c1cc(NC(=O)c2cccc(-n3ccnc3)n2)ccn1 [Compound 23] | 1 to 50 nM | 1 to 50 nM |  | 
Nc1ccc(-n2ccnc2)nc1C(=O)Nc1ccnc(F)c1 [Compound 65] | < 1 nM | < 1 nM | < 1 nM | 
O=C(Nc1ccccn1)c1cccc(-n2ccnc2)n1 [Compound 25] | 51 to 1000 nM | 51 to 1000 nM |  | 
COc1ccc(C(=O)Nc2cccnc2)nc1-n1ccnc1 [Compound 60] | 51 to 1000 nM | 51 to 1000 nM | 1 to 50 nM | 
Cc1ccc(C(=O)Nc2cccnc2)nc1-n1ccnc1 [Compound 58, 6-(1H-imidazol-1-yl)-5-methyl-N-(pyridin-3-yl)picolinamide] | 51 to 1000 nM | 51 to 1000 nM | 1 to 50 nM | 
O=C(Nc1cc(F)nc(F)c1)c1cccc(-n2ccnc2)n1 [Compound 5] | < 1 nM | < 1 nM |  | 51 to 1000 nM
O=C(Nc1cccnc1)c1cncc(-n2ccnc2)n1 [Compound 70] | < 1 nM | < 1 nM |  | 1000 to 10000 nM
O=C(O)c1ccc(NC(=O)c2cccc(-n3ccnc3)n2)cn1 [Compound 21] | 1 to 50 nM | 1 to 50 nM | 1 to 50 nM | 
NC(=O)c1cc(NC(=O)c2cccc(-n3ccnc3)n2)ccn1 [Compound 17] | 1 to 50 nM | 1 to 50 nM | 1 to 50 nM | 
Cc1cc(NC(=O)c2cccc(-n3ccnc3)n2)cc(C#N)n1 [Compound 4] | < 1 nM | < 1 nM |  | 51 to 1000 nM

Second part, the molecule after the results:

IC50 [1] | IC50 [2] | IC50 [3] | IC50 [4] | Structure (SMILES)
1 to 50 nM | 1 to 50 nM | 1 to 50 nM |  | COc1ccc(-n2ccnc2)nc1C(=O)Nc1cccnc1 [Compound 63]
1 to 50 nM | 1 to 50 nM |  |  | COCCNc1cc(NC(=O)c2cccc(-n3ccnc3)n2)ccn1 [Compound 10]
51 to 1000 nM | 51 to 1000 nM | 51 to 1000 nM |  | Cc1cncn1-c1cccc(C(=O)Nc2cccnc2)n1 [Compound 26]
< 1 nM | 1 to 50 nM | < 1 nM |  | Nc1ccc(-n2ccnc2)nc1C(=O)Nc1ccnc(C(F)(F)F)c1 [Compound 66]
1 to 50 nM | 1 to 50 nM | 1 to 50 nM |  | CCN(C(C)=O)c1ccc(NC(=O)c2cccc(-n3ccnc3)n2)cn1 [Compound 19]
< 1 nM | 1 to 50 nM | 1 to 50 nM |  | Cc1cc(C(=O)Nc2ccncc2)nc(-c2cncn2C)c1 [Compound 44]
< 1 nM | 1 to 50 nM |  |  | O=C(Nc1cccnc1)c1ccnc(-n2ccnc2)n1 [Compound 69]
 | 1 to 50 nM |  |  | O=C(Nc1ccc(C(F)(F)F)nc1)c1cccc(-c2cncs2)n1 [Compound 46]
< 1 nM | 1 to 50 nM |  | 51 to 1000 nM | CCOC(=O)c1cc(NC(=O)c2cccc(-n3ccnc3)n2)ccn1 [Compound 6]
< 1 nM | < 1 nM |  |  | CNc1cc(C(=O)Nc2cccnc2)nc(-n2ccnc2)c1 [Compound 68]
< 1 nM | 1 to 50 nM | < 1 nM |  | Nc1ccc(-n2ccnc2)nc1C(=O)Nc1ccncc1 [Compound 64, 3-amino-6-(1H-imidazol-1-yl)-N-(pyridin-4-yl)picolinamide]
